How the values were obtained:
[1] = biological target: Peptidase, CTSG (Cathepsin G) (Homo sapiens, UniProt P08311); assay: Safety screen; type: biochemical
Description: (§1) Blood cell counts, kinase profiler, safety screen, bacterial cytotoxicity, Ames, micronucleus assays were performed by the company Eurofins (France).

Adenosine A1 = Adenosine A1 (Homo sapiens, UniProt P30542); assay: Safety screen; type: binding
Description: (§2) The kinase profiler was performed by the company Eurofins (Discovery, Panlab and Cerep).

Glutamate, NMDA, Glycine = assay: Safety screen; type: binding, rat
Description: (§3) Blood cell counts, kinase profiler, safety screen, bacterial cytotoxicity, Ames, micronucleus assays were performed by the company Eurofins (France). The kinase profiler was performed by the company Eurofins (Discovery, Panlab and Cerep).

Neuropeptide Y Y1 = Neuropeptide Y Y1 (Homo sapiens, UniProt P25929); assay: Safety screen; type: binding
Description: as §1

[2] = biological target: Platelet Activating Factor (PAF) (Homo sapiens, UniProt P25105); assay: Safety screen; type: binding
Description: as §3

Tachykinin NK1 = Tachykinin NK1 (Homo sapiens, UniProt P25103); assay: Safety screen; type: binding
Description: as §1

Arg(h) = Arg(h) (Homo sapiens, UniProt P42684); assay: Kinase Profiler; type: biochemical
Description: as §3

BTK(R28H)(h) = BTK(R28H)(h) (Homo sapiens, UniProt Q06187, R28H); assay: Kinase Profiler; type: biochemical
Description: as §3

CDKL3(h) = CDKL3(h) (Homo sapiens, UniProt Q8IVW4); assay: Kinase Profiler; type: biochemical
Description: as §2

DRAK1(h) = DRAK1(h) (Homo sapiens, UniProt Q9UEE5); assay: Kinase Profiler; type: biochemical
Description: as §3

MAP4K3(h) = MAP4K3(h) (Homo sapiens, UniProt Q8IVH8); assay: Kinase Profiler; type: biochemical
Description: as §2

MARK4(h) = MARK4(h) (Homo sapiens, UniProt Q96L34); assay: Kinase Profiler; type: biochemical
Description: as §2

PAK6(h) = PAK6(h) (Homo sapiens, UniProt Q9NQU5); assay: Kinase Profiler; type: biochemical
Description: as §2

PKBα(h) = PKBα(h) (Homo sapiens, UniProt P31749); assay: Kinase Profiler; type: biochemical
Description: as §2

Src(1-530)(h) = Src(1-530)(h) (Homo sapiens, UniProt P12931); assay: Kinase Profiler; type: biochemical
Description: as §2

RHOA = RHOA (Homo sapiens, UniProt P61586); assay: GEF-stimulated nucleotide exchange; type: biochemical; set-up: Full-length RAC2, RHOG, RHOA and CDC42 were purified as previously described; made in house; p115RhoGEF DH-PH in insect cells (Sf21); conditions: 10^-5 M
Description: Figure 4 A41 selectively impairs RAC protein activation (A) Representative surface plasmon resonance (SPR) sensograms of binding of immobilized RHOA or CDC42 with indicated increasing concentrations of A41 (N > 3). (B) Effect of A41 on GEF-stimulated RAC2, RHOG, RHOA, and CDC42 nucleotide exchange. […] Kobs is expressed as mean ± SEM. ∗p < 0.001 vs. control. (C) Effect of A41 on RAC1 G30S activation. […] The GEF TRIO was used to induce nucleotide exchange (N = 3). Data are expressed as mean ± SEM. (D) Immunoblot analysis and associated quantification of RAC-GTP level and total RAC expression in NIH-3T3 fibroblasts expressing RAC wild-type (RAC1 WT) or RAC1 oncomutants (RAC1 P29S and RAC1b) in the absence (Ctrl) and presence of A41 (10 μM). RAC activation was measured as the ratio of RAC-GTP to total RAC and expressed relative to Ctrl condition. Data are presented as mean ± SEM. ∗∗∗p < 0.001 vs. controls.
Full-length RAC1 carrying a 6xHis tag in C-terminus was purified as previously described.[64] […] Specific exchange activity toward RHOA determined by fluorescence kinetics is 0.04 s^−1M^−1.
Nucleotide exchange kinetics were measured by recording the increase in fluorescence following the association of mant-GTP on GDP-bound RHO protein or the decay in fluorescence following the dissociation of mant-GDP pre-loaded onto the RHO protein (λEx = 360 nm, λEm = 440 nm) as previously described.[39] […]

Sequence of PAK6(h) (Q9NQU5 whole entry): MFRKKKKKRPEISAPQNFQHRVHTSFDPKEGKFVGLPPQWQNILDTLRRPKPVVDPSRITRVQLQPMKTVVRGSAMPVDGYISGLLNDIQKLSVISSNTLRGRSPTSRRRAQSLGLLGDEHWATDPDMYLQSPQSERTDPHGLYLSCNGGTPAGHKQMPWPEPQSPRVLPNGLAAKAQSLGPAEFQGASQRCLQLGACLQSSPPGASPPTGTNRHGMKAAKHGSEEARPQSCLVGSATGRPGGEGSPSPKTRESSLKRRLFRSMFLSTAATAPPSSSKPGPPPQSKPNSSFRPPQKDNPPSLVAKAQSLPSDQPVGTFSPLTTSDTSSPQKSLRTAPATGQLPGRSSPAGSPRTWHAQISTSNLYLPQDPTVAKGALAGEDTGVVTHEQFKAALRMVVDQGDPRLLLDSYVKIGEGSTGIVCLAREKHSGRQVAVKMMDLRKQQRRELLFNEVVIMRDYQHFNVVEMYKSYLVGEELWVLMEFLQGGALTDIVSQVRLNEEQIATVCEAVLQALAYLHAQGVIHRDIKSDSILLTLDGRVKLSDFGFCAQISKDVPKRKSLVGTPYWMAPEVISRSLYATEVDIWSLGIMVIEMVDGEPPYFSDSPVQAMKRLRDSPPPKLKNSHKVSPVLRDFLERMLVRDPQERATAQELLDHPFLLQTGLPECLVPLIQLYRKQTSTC
Sequence of Src(1-530)(h) (P12931 1-530 limits assumed): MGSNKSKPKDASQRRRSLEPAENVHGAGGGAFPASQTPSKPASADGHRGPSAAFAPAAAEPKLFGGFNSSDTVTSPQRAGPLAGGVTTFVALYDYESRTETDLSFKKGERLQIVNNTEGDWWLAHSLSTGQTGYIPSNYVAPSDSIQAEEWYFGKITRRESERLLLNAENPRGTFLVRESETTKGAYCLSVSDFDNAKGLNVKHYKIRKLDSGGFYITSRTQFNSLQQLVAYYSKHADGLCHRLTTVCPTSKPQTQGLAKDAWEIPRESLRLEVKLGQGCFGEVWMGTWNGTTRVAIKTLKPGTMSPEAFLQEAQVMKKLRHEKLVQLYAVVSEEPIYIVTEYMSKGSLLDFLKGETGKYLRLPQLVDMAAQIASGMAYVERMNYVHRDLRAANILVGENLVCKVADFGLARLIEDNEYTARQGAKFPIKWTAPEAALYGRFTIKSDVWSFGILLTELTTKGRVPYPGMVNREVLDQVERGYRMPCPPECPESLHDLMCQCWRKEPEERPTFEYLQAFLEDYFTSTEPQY
Sequence of RHOA (P61586 whole entry): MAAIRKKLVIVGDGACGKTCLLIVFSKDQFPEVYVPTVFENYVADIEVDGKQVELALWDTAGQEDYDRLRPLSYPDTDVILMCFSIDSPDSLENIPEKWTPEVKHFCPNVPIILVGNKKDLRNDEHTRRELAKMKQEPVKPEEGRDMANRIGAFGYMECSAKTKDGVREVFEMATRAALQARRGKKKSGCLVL
Sequence of BTK(R28H)(h) (Q06187 whole entry R28H): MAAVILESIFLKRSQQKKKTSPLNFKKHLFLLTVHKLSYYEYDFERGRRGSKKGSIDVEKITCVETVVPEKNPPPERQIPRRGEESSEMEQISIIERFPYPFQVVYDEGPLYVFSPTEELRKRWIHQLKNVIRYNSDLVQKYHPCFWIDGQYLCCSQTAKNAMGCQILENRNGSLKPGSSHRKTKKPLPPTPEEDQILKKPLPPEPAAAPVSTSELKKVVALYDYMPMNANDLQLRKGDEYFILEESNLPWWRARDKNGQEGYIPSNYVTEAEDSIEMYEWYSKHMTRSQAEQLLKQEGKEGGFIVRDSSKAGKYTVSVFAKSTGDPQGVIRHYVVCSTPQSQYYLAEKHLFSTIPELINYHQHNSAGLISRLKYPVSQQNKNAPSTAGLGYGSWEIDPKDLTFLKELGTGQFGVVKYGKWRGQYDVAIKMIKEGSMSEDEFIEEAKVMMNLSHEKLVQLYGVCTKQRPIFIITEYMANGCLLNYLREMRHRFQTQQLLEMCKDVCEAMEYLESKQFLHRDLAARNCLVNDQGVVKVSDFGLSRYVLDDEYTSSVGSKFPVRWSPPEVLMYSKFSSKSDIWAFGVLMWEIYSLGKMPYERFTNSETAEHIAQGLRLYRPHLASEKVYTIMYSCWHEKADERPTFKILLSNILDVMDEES
Sequence of Adenosine A1 (P30542 whole entry): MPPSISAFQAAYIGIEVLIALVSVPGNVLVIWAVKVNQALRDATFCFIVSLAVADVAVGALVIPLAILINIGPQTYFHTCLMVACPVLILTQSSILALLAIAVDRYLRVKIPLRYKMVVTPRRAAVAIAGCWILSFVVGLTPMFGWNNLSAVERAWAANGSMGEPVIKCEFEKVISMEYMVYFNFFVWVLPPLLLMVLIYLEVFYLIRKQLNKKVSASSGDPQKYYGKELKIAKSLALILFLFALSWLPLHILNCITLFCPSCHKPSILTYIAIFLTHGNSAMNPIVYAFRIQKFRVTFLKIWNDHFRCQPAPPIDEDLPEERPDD
Sequence of PKBα(h) (P31749 whole entry): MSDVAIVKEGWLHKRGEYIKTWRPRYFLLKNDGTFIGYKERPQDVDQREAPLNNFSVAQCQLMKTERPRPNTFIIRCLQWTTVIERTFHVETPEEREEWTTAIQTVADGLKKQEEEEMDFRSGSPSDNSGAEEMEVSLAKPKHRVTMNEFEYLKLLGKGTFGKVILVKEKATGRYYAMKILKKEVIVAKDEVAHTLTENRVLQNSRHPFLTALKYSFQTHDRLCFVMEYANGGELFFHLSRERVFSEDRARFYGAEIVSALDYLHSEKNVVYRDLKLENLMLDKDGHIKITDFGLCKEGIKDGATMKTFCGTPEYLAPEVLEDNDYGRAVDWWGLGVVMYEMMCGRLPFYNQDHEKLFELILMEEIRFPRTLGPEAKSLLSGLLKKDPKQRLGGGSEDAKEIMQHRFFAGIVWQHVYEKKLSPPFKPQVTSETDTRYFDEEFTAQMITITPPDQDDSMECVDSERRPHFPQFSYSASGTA
Sequence of Arg(h) (P42684 whole entry): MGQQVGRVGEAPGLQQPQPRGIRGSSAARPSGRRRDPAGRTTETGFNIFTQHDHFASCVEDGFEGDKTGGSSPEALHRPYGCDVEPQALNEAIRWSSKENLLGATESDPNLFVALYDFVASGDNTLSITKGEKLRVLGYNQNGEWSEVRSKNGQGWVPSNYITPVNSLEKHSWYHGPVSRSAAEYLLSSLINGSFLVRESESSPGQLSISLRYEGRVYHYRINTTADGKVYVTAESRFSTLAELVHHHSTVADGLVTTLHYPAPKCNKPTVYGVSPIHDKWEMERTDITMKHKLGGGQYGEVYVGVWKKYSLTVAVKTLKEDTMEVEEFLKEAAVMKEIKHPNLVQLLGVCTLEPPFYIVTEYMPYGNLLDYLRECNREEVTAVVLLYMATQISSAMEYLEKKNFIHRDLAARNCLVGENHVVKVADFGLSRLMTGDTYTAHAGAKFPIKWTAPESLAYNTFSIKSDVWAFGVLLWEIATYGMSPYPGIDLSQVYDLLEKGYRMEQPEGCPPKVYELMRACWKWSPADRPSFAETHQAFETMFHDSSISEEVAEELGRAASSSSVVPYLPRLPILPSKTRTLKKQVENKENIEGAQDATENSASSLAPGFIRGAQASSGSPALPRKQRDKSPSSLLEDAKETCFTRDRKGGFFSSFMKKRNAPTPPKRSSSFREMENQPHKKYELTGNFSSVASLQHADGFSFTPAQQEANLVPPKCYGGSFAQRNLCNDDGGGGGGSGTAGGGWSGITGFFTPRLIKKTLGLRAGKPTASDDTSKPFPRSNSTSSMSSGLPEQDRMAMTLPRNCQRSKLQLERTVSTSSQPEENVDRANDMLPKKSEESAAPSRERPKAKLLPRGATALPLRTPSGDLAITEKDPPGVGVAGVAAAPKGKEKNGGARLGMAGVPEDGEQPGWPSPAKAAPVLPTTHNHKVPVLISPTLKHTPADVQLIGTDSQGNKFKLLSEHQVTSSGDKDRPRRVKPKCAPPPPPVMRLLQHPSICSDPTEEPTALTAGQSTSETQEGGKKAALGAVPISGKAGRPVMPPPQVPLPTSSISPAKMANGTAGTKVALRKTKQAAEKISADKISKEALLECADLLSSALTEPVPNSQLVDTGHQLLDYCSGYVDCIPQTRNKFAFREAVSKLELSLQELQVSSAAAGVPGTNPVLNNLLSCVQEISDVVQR
Sequence of Platelet Activating Factor (PAF) (P25105 whole entry): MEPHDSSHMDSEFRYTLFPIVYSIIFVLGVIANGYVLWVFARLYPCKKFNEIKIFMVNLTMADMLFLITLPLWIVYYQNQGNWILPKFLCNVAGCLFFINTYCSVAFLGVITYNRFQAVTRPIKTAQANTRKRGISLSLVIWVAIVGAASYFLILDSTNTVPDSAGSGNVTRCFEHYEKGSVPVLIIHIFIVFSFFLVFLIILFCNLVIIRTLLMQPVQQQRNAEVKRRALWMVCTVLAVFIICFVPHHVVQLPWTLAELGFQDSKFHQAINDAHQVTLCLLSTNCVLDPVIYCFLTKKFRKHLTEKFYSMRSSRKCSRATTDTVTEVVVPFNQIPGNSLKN
Sequence of Neuropeptide Y Y1 (P25929 whole entry): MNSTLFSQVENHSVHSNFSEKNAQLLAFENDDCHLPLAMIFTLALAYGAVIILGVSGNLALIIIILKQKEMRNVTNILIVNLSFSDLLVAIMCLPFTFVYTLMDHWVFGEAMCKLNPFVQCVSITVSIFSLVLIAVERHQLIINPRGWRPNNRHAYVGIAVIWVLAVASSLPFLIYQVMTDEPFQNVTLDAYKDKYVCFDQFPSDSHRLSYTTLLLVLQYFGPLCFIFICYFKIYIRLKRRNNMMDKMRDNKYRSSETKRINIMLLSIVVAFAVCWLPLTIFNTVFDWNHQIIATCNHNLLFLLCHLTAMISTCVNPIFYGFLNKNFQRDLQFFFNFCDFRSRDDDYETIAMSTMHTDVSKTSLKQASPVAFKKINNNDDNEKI

With `COc1ccc(OC)c(NS(=O)(=O)c2ccc(NC(=O)CCSc3ccc(C)cc3)cc2)c1` [Compound A41] the “% inh.” value [1] was -2%, the “% inh.” value (Adenosine A1) was 2% and the “% inh.” value (Glutamate, NMDA, Glycine) was 7%. The “% inh.” value (Neuropeptide Y Y1) was -2%, the “% inh.” value [2] was 78% and the “% inh.” value (Tachykinin NK1) was 41%. The “Activity(%)” value (Arg(h)) was 122%, the “Activity(%)” value (BTK(R28H)(h)) was 102% and the “Activity(%)” value (CDKL3(h)) was 103%. The “Activity(%)” value (DRAK1(h)) was 101%, the “Activity(%)” value (MAP4K3(h)) was 98% and the “Activity(%)” value (MARK4(h)) was 105%. The “Activity(%)” value (PAK6(h)) was 99%, the “Activity(%)” value (PKBα(h)) was 108% and the “Activity(%)” value (Src(1-530)(h)) was 105%. For the same compound, the “activation of RHOA induced by p115RhoGEF DH-PH” value (RHOA) was “did not change the activation”.

Source: PMC12281424, “A Rac-specific competitive inhibitor of guanine nucleotide binding reduces metastasis in triple-negative breast cancer” (Cell Reports Medicine, 2025)
